The source of these data is patent publication US11958830B2, “Protease inhibitors, preparation, and uses thereof” (WESTLAKE PHARMACEUTICALS (HANGZHOU) CO., LTD., priority 2021, dated 2024).

One experiment addresses T1, SARS-CoV-2 3CLpro (Severe acute respiratory syndrome coronavirus 2, UniProt P0DTD1).
T1 construct: made in house; host or cells: E. coli
The experiment is described as follows: FRET-based continuous kinetic enzymatic assay of 3CLpro. Format: biochemical. The note with it: 100 nM 3CLpro, 100 μM fluorogenic substrate, 1 hour pre-incubation, 30° C.; read-out: IC50 against SARS-CoV-2 3CLpro.

For the next experiment, the system named is SARS-CoV-2. The experiment is described as follows: microbe, parasite or virus in culture. In kind it is cell-based. To be noted: Severe acute respiratory syndrome coronavirus 2, A549, read-out: IC50, anti-SARS-CoV-2 activity in A549 cells.

For orientation: IC50 means the midpoint of a concentration-inhibition curve. As to `CNC(=O)[C@@H](Cc1cccc(F)c1)NC(=O)C1CN(C(=O)c2cncc3cccc(O)c23)CCN1Cc1ccc(Cl)cc1Cl` (stereo partly shown) [Compound 1], the IC50 on SARS-CoV-2 3CLpro was found to be 165 nM; in the experiment with SARS-CoV-2, 848 nM.
Regarding `CNC(=O)c1cc(Br)cc([N+](=O)[O-])c1N1CC[C@@]2(CN(C(=O)c3cncc4cc(O)ccc34)C[C@@H]2c2ccccc2)C1` [Compound 8], the values for the IC50 at SARS-CoV-2 3CLpro and in the experiment with SARS-CoV-2 were 49.5 nM and 38.8 nM, respectively.
